We go through four compounds from ChEMBL document CHEMBL1155021, “Spheciosterol sulfates, PKCzeta inhibitors from a philippine sponge Spheciospongia sp” (J Nat Prod, 2008).

One may read the IC50 as the midpoint of a concentration-inhibition curve.

This assay addresses T1, Protein kinase C zeta type (Homo sapiens, UniProt Q05513).
T1 sequence (Q05513 whole entry): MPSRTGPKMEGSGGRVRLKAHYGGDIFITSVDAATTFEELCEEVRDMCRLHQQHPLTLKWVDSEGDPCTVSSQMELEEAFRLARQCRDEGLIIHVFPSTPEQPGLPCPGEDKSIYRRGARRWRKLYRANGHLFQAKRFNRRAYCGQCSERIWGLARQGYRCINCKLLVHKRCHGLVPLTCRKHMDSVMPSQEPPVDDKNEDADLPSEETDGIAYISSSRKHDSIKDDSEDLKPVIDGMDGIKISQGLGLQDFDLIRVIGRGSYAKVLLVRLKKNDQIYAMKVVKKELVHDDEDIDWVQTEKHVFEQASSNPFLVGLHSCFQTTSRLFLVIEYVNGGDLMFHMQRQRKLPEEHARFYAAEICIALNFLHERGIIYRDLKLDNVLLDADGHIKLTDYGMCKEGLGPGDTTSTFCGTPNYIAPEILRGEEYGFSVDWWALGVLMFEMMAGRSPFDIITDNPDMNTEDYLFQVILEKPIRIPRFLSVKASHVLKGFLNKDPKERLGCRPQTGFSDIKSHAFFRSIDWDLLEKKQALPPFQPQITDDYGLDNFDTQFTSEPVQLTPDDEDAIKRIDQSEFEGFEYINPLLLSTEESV
The assay can be described thus: Inhibition of PKCzeta by TR-FRET based LanthaScreen assay.

Counter-ions that a name gives are not always drawn.

The compound `C=C(C)C(C)(C)C(C)CC[C@@H](C)[C@H]1CC[C@@]2(C)[C@@H]3C[C@H](OS(=O)(=O)O)[C@H]4[C@@H](O)[C@H](OS(=O)(=O)O)[C@@H](OS(=O)(=O)O)C[C@]4(C)C3=CC[C@]12C` (some centres undefined) [SPHECIOSTEROL SULFATE C] came in with a half-inhibitory concentration (IC50) of 110 nM.

Take `C=C(C)C(CC)CC[C@@H](C)[C@H]1CC[C@@]2(C)[C@@H]3C[C@H](OS(=O)(=O)O)[C@H]4[C@@H](O)[C@H](OS(=O)(=O)O)[C@@H](OS(=O)(=O)O)C[C@]4(C)C3=CC[C@]12C` (some centres undefined) [SPHECIOSTEROL SULFATE A]: the concentration for half-maximal inhibition (IC50) is 1590 nM. Then `CC(C)C1(CC[C@@H](C)[C@H]2CC[C@@]3(C)[C@@H]4C[C@H](OS(=O)(=O)O)[C@H]5[C@@H](O)[C@H](OS(=O)(=O)O)[C@@H](OS(=O)(=O)O)C[C@]5(C)C4=CC[C@]23C)CC1C` (some centres undefined) [TOPSENTIASTEROL SULFATE E], with 1210 nM.

In turn, `C=C(C)C(CC[C@@H](C)[C@H]1CC[C@@]2(C)[C@@H]3C[C@H](OS(=O)(=O)O)[C@H]4[C@@H](O)[C@H](OS(=O)(=O)O)[C@@H](OS(=O)(=O)O)C[C@]4(C)C3=CC[C@]12C)C(C)C` (some centres undefined) [SPHECIOSTEROL SULFATE B] returned an IC50 of 530 nM.
